Test results: patent publication US20240358692A1, “TREATMENT OF SCLERODERMA” (Aisa Pharma, Inc., priority 2023, published 2024)

Assays:
[1] = test system: participants with SSc-RP; assay: Frequency of weekly symptomatic RP attacks (patient diary), Phase 2a Part A; format: in vivo, human; conditions: ITT Part A
Source text: Percent change from baseline evaluation for frequency of weekly RP attacks were or will be used as the primary efficacy variable. The sponsor-developed participant-informed diary will be used to record data. Frequency of weekly RP attacks is defined as the total number of RP attacks divided by the number of days with available diary data within the last 7 days of each dosing period then multiplied by 7. Total number of RP attacks during the last 7 days of screening period divided by the number of days with available data then multiplied by 7 will be used as baseline for the analysis of all periods. The variable will be calculated as follows: […]
Percent change from baseline evaluation for frequency of weekly RP attacks was and will be the primary efficacy endpoint. Frequency of weekly RP attacks is defined as the total number of RP attacks divided by the number of days with available diary data within the last 7 days of each dosing period then multiplied by 7. Total number of RP attacks during the last 7 days of screening period divided by the number of days with available data then multiplied by 7 will be used as baseline for the analysis of all periods.

[2] = test system: participants with SSc-RP; assay: SHAQ - Alternative Disability Index; format: in vivo, human; parameters: key to SHAQ Alternative Disability Index, In-Clinic Visit (Day 12), Median: mean of 8 category scores, 0 = no difficulty to 3 = unable to do; conditions: for % change in Alternative Disability Index: SHAQ, mITT Part A; for alternative disability index, Change from Baseline, Mean / alternative disability index, Change from Baseline, Median / alternative disability index, Percent Change from Baseline, Mean / alternative disability index, Percent Change from Baseline, Median / alternative disability index, In Clinic Visit (Day 12), Mean / alternative disability index, In Clinic Visit (Day 12), Median: Modified ITT Population-Part A, tadalafil 5 mg, alone or combined as labelled
Source text: The SHAQ is used to calculate a Disability Index to assess the participant qualify of life. The eight categories assessed by the Disability Index are 1) dressing and grooming, 2) arising, 3) eating, 4) walking, 5) hygiene, 6) reach, 7) grip, and 8) common daily activities. For each of these categories, patients report the amount of difficulty they have in performing two or three specific activities.
There are four possible responses for the Disability Index questions: • Without any difficulty=0 • With some difficulty=1 • With much difficulty=2 • Unable to do=3 • The highest score reported by the patient for any component question of the eight categories determines the score for that category. • If a component question is left blank or the response is too ambiguous to assign a score, then the score for that category is determined by the remaining completed question(s). • If all component questions are blank or if more than one answer is given, then follow up with the respondent is required. • If the respondent's mark is between the response columns, then move it to the closest one. If it's directly between the two, move it to the higher one.
The aid and device variables are not used to calculate the alternative disability index; it is calculated by adding the scores for each of the categories and dividing by the number of categories answered. This gives a score in the 0 to 3 range.

[3] = Pooled Cilnidipine 20 mg and Cilnidipine 20 mg + Tadalafil 5 mg, n=3, excluding outliers, first Baseline RCS subgroup, last 7 days of dosing
[4] = Pooled Cilnidipine (10 or 20 mg), n=3
[5] = Pooled Cilnidipine (10 or 20 mg), n=3, Excluding Outliers
[6] = Pooled Cilnidipine (10 or 20 mg), n=3, by Baseline RCS, first block (RCS <5.0)
[7] = Pooled Cilnidipine arms, n=3, excluding outliers, first Baseline RCS subgroup, last 7 days of dosing
[8] = cilnidipine 10 mg daily, n=1, excluding outliers, first Baseline RCS subgroup, last 7 days of dosing
[9] = cilnidipine 20 mg daily, n=2, excluding outliers, first Baseline RCS subgroup, last 7 days of dosing
[10] = Any Cilnidipine (N = 17), Day 12, PP Population, Part A
[11] = Cilnidipine 10 mg, SSc patients, PP, Part A
[12] = Cilnidipine 20 mg, SSc patients, PP, Part A
[13] = Pooled Cilnidipine 10 mg and Cilnidipine 10 mg + Tadalafil 5 mg (N = 9), Day 12, PP Population, Part A
[14] = Pooled Cilnidipine (N = 8), Day 12, PP Population, Part A

COCCOC(=O)C1=C(C)NC(C)=C(C(=O)OC/C=C/c2ccccc2)C1c1cccc([N+](=O)[O-])c1 (stereo not shown) [Cilnidipine]
Weekly Symptomatic RP Attacks Change from Baseline, Median [1, 3]: −5.00 | Weekly Symptomatic RP Attacks Percent Change from Baseline, Mean [1, 3]: −31.75% | Weekly Symptomatic RP Attacks Percent Change from Baseline, Median [1, 3]: −28.57% | Weekly Symptomatic RP Attacks, Mean [1, 3]: 9.67 | Weekly Symptomatic RP Attacks, Median [1, 3]: 11.00 | Weekly Symptomatic RP Attacks Change from Baseline, Mean [1, 4]: −5.33 | Weekly Symptomatic RP Attacks Change from Baseline, Median [1, 4]: −7.00 | Weekly Symptomatic RP Attacks Percent Change from Baseline, Mean [1, 4]: −33.60% | Weekly Symptomatic RP Attacks Percent Change from Baseline, Median [1, 4]: −33.33% | Weekly Symptomatic RP Attacks, Mean [1, 4]: 10.00 | Weekly Symptomatic RP Attacks, Median [1, 4]: 11.00 | Weekly Symptomatic RP Attacks Change from Baseline, Mean [1, 5]: −5.33 | Weekly Symptomatic RP Attacks Change from Baseline, Median [1, 5]: −7.00 | Weekly Symptomatic RP Attacks Percent Change from Baseline, Mean [1, 5]: −33.60% | Weekly Symptomatic RP Attacks Percent Change from Baseline, Median [1, 5]: −33.33% | Weekly Symptomatic RP Attacks, Mean [1, 5]: 10.00 | Weekly Symptomatic RP Attacks, Median [1, 5]: 11.00 | Weekly Symptomatic RP Attacks Change from Baseline, Mean [1, 6]: −5.33 | Weekly Symptomatic RP Attacks Change from Baseline, Median [1, 6]: −7.00 | Weekly Symptomatic RP Attacks Percent Change from Baseline, Mean [1, 6]: −33.60% | Weekly Symptomatic RP Attacks Percent Change from Baseline, Median [1, 6]: −33.33% | Weekly Symptomatic RP Attacks, Mean [1, 6]: 10.00 | Weekly Symptomatic RP Attacks, Median [1, 6]: 11.00 | Weekly Symptomatic RP Attacks Change from Baseline, Mean [1, 7]: −5.33 | Weekly Symptomatic RP Attacks Change from Baseline, Median [1, 7]: −7.00 | Weekly Symptomatic RP Attacks Percent Change from Baseline, Mean [1, 7]: −33.60% | Weekly Symptomatic RP Attacks Percent Change from Baseline, Median [1, 7]: −33.33% | Weekly Symptomatic RP Attacks, Mean [1, 7]: 10.00 | Weekly Symptomatic RP Attacks, Median [1, 7]: 11.00 | Weekly Symptomatic RP Attacks Change from Baseline, Mean [1, 8]: −7.00 | Weekly Symptomatic RP Attacks Change from Baseline, Median [1, 8]: −7.00 | Weekly Symptomatic RP Attacks Percent Change from Baseline, Mean [1, 8]: −33.33% | Weekly Symptomatic RP Attacks Percent Change from Baseline, Median [1, 8]: −33.33% | Weekly Symptomatic RP Attacks, Mean [1, 8]: 14.00 | Weekly Symptomatic RP Attacks, Median [1, 8]: 14.00 | Weekly Symptomatic RP Attacks Change from Baseline, Mean [1, 9]: −4.50 | Weekly Symptomatic RP Attacks Change from Baseline, Median [1, 9]: −4.50 | Weekly Symptomatic RP Attacks Percent Change from Baseline, Mean [1, 9]: −33.73% | Weekly Symptomatic RP Attacks Percent Change from Baseline, Median [1, 9]: −33.73% | Weekly Symptomatic RP Attacks, Mean [1, 9]: 8.00 | Weekly Symptomatic RP Attacks, Median [1, 9]: 8.00 | SHAQ Alternative Disability Index, Change from Baseline, Mean (SD) [2, 10]: −0.006 (0.1912) | SHAQ Alternative Disability Index, Change from Baseline, Median [2, 10]: 0.000 | SHAQ Alternative Disability Index, In-Clinic Visit (Day 12), Mean (SD) [2, 10]: 0.450 (0.4926) | SHAQ Alternative Disability Index, In-Clinic Visit (Day 12), Median [2, 10]: 0.250 | SHAQ Alternative Disability Index, Percent Change from Baseline, Mean (SD) [2, 10]: 21.32 (100.525) % | SHAQ Alternative Disability Index, Percent Change from Baseline, Median [2, 10]: −10.00% | SHAQ Alternative Disability Index, Change from Baseline, Max [2, 11]: 0.38 | SHAQ Alternative Disability Index, Change from Baseline, Mean [2, 11]: 0.063 | SHAQ Alternative Disability Index, Change from Baseline, Median [2, 11]: 0.000 | SHAQ Alternative Disability Index, Change from Baseline, Min [2, 11]: −0.13, | SHAQ Alternative Disability Index, Change from Baseline, Q1 [2, 11]: −0.063, | SHAQ Alternative Disability Index, Change from Baseline, Q3 [2, 11]: 0.188 | SHAQ Alternative Disability Index, Day 12, Max [2, 11]: 1.25 | SHAQ Alternative Disability Index, Day 12, Mean [2, 11]: 0.563 | SHAQ Alternative Disability Index, Day 12, Median [2, 11]: 0.500 | SHAQ Alternative Disability Index, Day 12, Min [2, 11]: 0.00, | SHAQ Alternative Disability Index, Day 12, Q1 [2, 11]: 0.000, | SHAQ Alternative Disability Index, Percent Change from Baseline, Max [2, 11]: 42.9 | SHAQ Alternative Disability Index, Percent Change from Baseline, Mean [2, 11]: 15.87 | SHAQ Alternative Disability Index, Percent Change from Baseline, Median [2, 11]: 15.87 | SHAQ Alternative Disability Index, Percent Change from Baseline, Min [2, 11]: −11.1, | SHAQ Alternative Disability Index, Percent Change from Baseline, Q1 [2, 11]: −11.11, | SHAQ Alternative Disability Index, Percent Change from Baseline, Q3 [2, 11]: 42.86 | % change in Alternative Disability Index ([2]; Cilnidipine 20 mg (n = 3)): −42% | SHAQ Alternative Disability Index, Change from Baseline, Max [2, 12]: 0.25 | SHAQ Alternative Disability Index, Change from Baseline, Mean [2, 12]: 0.000 | SHAQ Alternative Disability Index, Change from Baseline, Median [2, 12]: −0.063 | SHAQ Alternative Disability Index, Change from Baseline, Min [2, 12]: −0.13, | SHAQ Alternative Disability Index, Day 12, Max [2, 12]: 0.50 | SHAQ Alternative Disability Index, Day 12, Mean [2, 12]: 0.219 | SHAQ Alternative Disability Index, Day 12, Median [2, 12]: 0.188 | SHAQ Alternative Disability Index, Day 12, Min [2, 12]: 0.00, | SHAQ Alternative Disability Index, Day 12, Q1 [2, 12]: 0.063, | SHAQ Alternative Disability Index, Day 12, Q3 [2, 12]: 0.375 | SHAQ Alternative Disability Index, Percent Change from Baseline, Max [2, 12]: 100.0 | SHAQ Alternative Disability Index, Percent Change from Baseline, Mean [2, 12]: 5.56 | SHAQ Alternative Disability Index, Percent Change from Baseline, Median [2, 12]: −33.33 | SHAQ Alternative Disability Index, Percent Change from Baseline, Min [2, 12]: −50.0, | SHAQ Alternative Disability Index, Percent Change from Baseline, Q1 [2, 12]: −50.00, | SHAQ Alternative Disability Index, Percent Change from Baseline, Q3 [2, 12]: 100.00 | alternative disability index, Change from Baseline, Mean ([2]; Day 12, dose cilnidipine 10 mg): 0.063 | alternative disability index, Change from Baseline, Median ([2]; Day 12, dose cilnidipine 10 mg): 0.000 | alternative disability index, Percent Change from Baseline, Mean ([2]; Day 12, dose cilnidipine 10 mg): 15.87% | alternative disability index, Percent Change from Baseline, Median ([2]; Day 12, dose cilnidipine 10 mg): 15.87% | alternative disability index, Change from Baseline, Mean ([2]; Day 12, dose cilnidipine 20 mg): −0.083 | alternative disability index, Change from Baseline, Median ([2]; Day 12, dose cilnidipine 20 mg): −0.125 | alternative disability index, Percent Change from Baseline, Mean ([2]; Day 12, dose cilnidipine 20 mg): −41.67% | alternative disability index, Percent Change from Baseline, Median ([2]; Day 12, dose cilnidipine 20 mg): −41.67% | alternative disability index, In Clinic Visit (Day 12), Mean ([2]; dose cilnidipine 10 mg): 0.563 | alternative disability index, In Clinic Visit (Day 12), Median ([2]; dose cilnidipine 10 mg): 0.500 | alternative disability index, In Clinic Visit (Day 12), Mean ([2]; dose cilnidipine 20 mg): 0.125 | alternative disability index, In Clinic Visit (Day 12), Median ([2]; dose cilnidipine 20 mg): 0.125 | SHAQ Alternative Disability Index, Change from Baseline, Mean [2, 13]: 0.021 | SHAQ Alternative Disability Index, Percent Change from Baseline, Median [2, 13]: −10.00% | SHAQ Alternative Disability Index, Change from Baseline, Mean ([2]; Pooled Cilnidipine 20 mg and Cilnidipine 20 mg + Tadalafil 5 mg (N = 8), Day 12, PP Population, Part A): −0.036 | SHAQ Alternative Disability Index, Change from Baseline, Mean [2, 14]: 0.031 | SHAQ Alternative Disability Index, Change from Baseline, Mean (SD) [2, 14]: 0.031 (0.1860) | SHAQ Alternative Disability Index, In-Clinic Visit (Day 12), Mean (SD) [2, 14]: 0.391 (0.4884) | SHAQ Alternative Disability Index, Percent Change from Baseline, Mean (SD) [2, 14]: 9.68 (61.446) % | SHAQ Alternative Disability Index, Percent Change from Baseline, Median [2, 14]: −11.11% | % change in Alternative Disability Index ([2]; Pooled Cilnidipine (n = 7)): −13% | % Δ from baseline, alternative disability mean ([2]; Pooled cilnidipine (n=4)): −12.9%
